| SMILES | melting point [°C] |
| --- | --- |
| O=C(O)C1CCN(c2ccc(S(=O)(=O)N3CCCCC3)cc2[N+](=O)[O-])CC1 | 241 to 243 |
| NC(=O)COc1cccnc1 | 93 to 95 |
| Cc1cccc2c1C(=O)NCCN2 | 182 to 184 |
| O=C(O)Cc1cc(=O)[nH]c(=O)[nH]1 | 324 to 326 |
| CCN1C(=N)C(C)(C)N(C)C1=O | 88 to 90 |
| COC(=O)c1c(Cl)c([N+](=O)[O-])cc([N+](=O)[O-])c1Cl | 97 to 99 |
| Nc1nonc1C(=O)N1CCCC1 | 192 to 194 |
| CCC(=O)c1c(C)nn(CCS(C)(=O)=O)c1C | 154 to 156 |
| CC(C)NC(=O)CC1(C(=O)O)CCCC1 | 139 to 141 |
| CC(C)CN1CC(C(=O)O)CC1=O (centres undefined) | 83 to 85 |
| Nc1cc(C2CCOCC2)[nH]n1 | 103 to 105 |
| NC(=O)CNCCC1CCCCC1 | 111 to 113 |
| Clc1cc(NCC2CC2)ncn1 | 98 to 100 |
| CCOc1cccc(C=CC(=O)O)c1OC1CCCC1 | 133 to 135 |
| Brc1ccc(SC2CCOCC2)nc1 | 60 to 62 |
| CC(C)COC(C)C(N)=NO (centres undefined) | 63 to 65 |
| CCOC(=O)c1sc2nc(CN3CCOCC3)nc(Cl)c2c1C | 110 to 112 |
| O=C(Nc1ccccn1)C1CCNCC1 | 113 to 115 |
| COC(=O)CCCc1csc(N)n1 | 69 to 71 |
| CC(=O)c1c(C)nc2sccn12 | 132 to 134 |
| ClCc1csc(-c2ncccn2)n1 | 147 to 149 |

| SMILES | melting point [°C] |
| --- | --- |
| Cn1c(S)nnc1COc1ccc(Cl)cc1 | 118 to 120 |
| NCc1ccccc1N1CCCC(C(N)=O)C1 (centres undefined) | 97 to 99 |
| CC(C)(C)OC(=O)N1CCN2C(=O)NCC2C1 (centres undefined) | 218 to 220 |
| O=c1ccc(-n2ccnc2)n[nH]1 | 251 to 253 |
| N#Cc1c(Cl)nsc1Cl | 64 to 66 |
| Clc1nc(CN2CCCCC2)nc2sc3c(c12)CCC3 | 75 to 77 |
| Nc1cc(Cl)ccc1C(=O)N1CCCCC1 | 103 to 105 |
| OC(c1ccc[nH]1)C(F)(F)F (centres undefined) | 47 to 49 |
| Cn1c(C(=O)O)cc(Cl)c1Cl | 178 to 180 |
| CCOc1ccc(S(=O)(=O)N2CCOCC2)cc1N | 165 to 167 |
| Nc1ccc(C(=O)N2CCCCC2)c(Cl)c1 | 148 to 150 |
| NNC(=O)Cc1cccs1 | 64 to 66 |
| O=C(CCl)NCCOc1cccc(C(F)(F)F)c1 | 43 to 45 |
| O=C1Cc2cc(S(=O)(=O)Cl)c(Cl)cc2N1 | 185 to 187 |
| CCOC(=O)c1cnc2c(OC)cc(OC)cc2c1Cl | 148 to 150 |
| O=C1OCCN1S(=O)(=O)Cl | 94 to 96 |
| NNC(=O)CC1CCCCC1 | 119 to 121 |
| N#CC(c1ccc(Br)cc1)N1CCNCC1 (centres undefined) | 83 to 85 |
| C=CCNC(=O)CC#N | 65 to 67 |
| Cn1ncc2c(N3CCNCC3)ncnc21 | 64 to 66 |
| O=c1[nH]c(-c2ccncc2)no1 | 259 to 261 |

| SMILES | melting point [°C] |
| --- | --- |
| Cc1ncc(NC(=O)OC(C)(C)C)s1 | 147 to 149 |
| Cc1cc2nnc(S)n2c(C)n1 | 250 to 252 |
| O=C(O)CCNC(=O)NC1CCCCC1 | 163 to 165 |
| COc1ccc2[nH]cc(C3=CCNCC3)c2c1 | 181 to 183 |
| CCn1c(S)nnc1-c1ccc(OC)cc1 | 178 to 180 |
| c1cc(NC2CCCCCC2)c2cccnc2c1 | 100 to 102 |
| Sc1nnc(-c2ccco2)o1 | 173 to 175 |
| O=S(=O)(Cl)C1CCOCC1 | 34 to 36 |
| Cn1ncc(C(=O)O)c1C1CC1 | 104 to 106 |
| COc1cccc(NCc2nnc3n2CCCCC3)c1 | 176 to 180 |
| CC(=O)N(CCC(N)=S)C(C)C | 104 to 106 |
| N#CCOc1ccc(CCl)cc1 | 63 to 65 |
| CCc1ccccc1-n1c(S)nc2ccccc2c1=O | 304 to 306 |
| Cc1cc(N)nn1-c1ccc(Cl)cc1Cl | 101 to 103 |
| NCC(O)c1cccc(F)c1 (centres undefined) | 42 to 44 |
| O=S1(=O)CC(O)C(NCc2ccco2)C1 (centres undefined) | 139 to 141 |
| O=[N+]([O-])c1cnn(CC2CO2)c1 (centres undefined) | 68 to 70 |
| COCCOc1c(Cl)cc(N)cc1Cl | 58 to 60 |
| CCCc1cc(Cl)n2ncnc2n1 | 67 to 69 |
| COC(=O)c1csc(S(=O)(=O)Cl)c1 | 54 to 56 |

The next lines start with the values.

| melting point [°C] | SMILES |
| --- | --- |
| 327 to 329 | O=C(O)c1ccc(NC(=O)c2ccc(Br)cc2)cc1 |
| 87 to 91 | COc1ccc(F)cc1C(=O)O |
| 204 to 206 | Cc1cc(NC(=O)CSCC(N)C(=O)O)no1 (centres undefined) |
| 122 to 124 | Cc1cccn2cc(COc3ccc(C=O)cc3)nc12 |
| 164 to 166 | CCc1nc(C(=O)O)nn1-c1ccccc1Cl |
| 248 to 250 | O=C(O)c1nn(-c2ccc(Cl)cc2)cc1O |
| 106 to 108 | CC(SCC(=O)Nc1cccc(Br)c1)C(=O)O (centres undefined) |
| 173 to 175 | Nc1c(C(=O)c2cccs2)oc2ccccc12 |
| 96 to 98 | CC(=O)NCCCc1ccc(C(=O)CCl)cc1 |
| 169 to 171 | COc1ccc(C(N)=O)cc1F |
| 80 to 82 | O=C(CO)N1CCCc2ccccc21 |
| 79 to 81 | Nc1ccc(Oc2ccc(CO)cc2)cc1 |
| 199 to 201 | NC(=O)Nc1ccccc1Br |
| 233 to 235 | NS(=O)(=O)c1ccc(O)c(C(=O)O)c1 |
| 220 to 222 | O=C(O)Cn1ccccc1=O |
| 189 to 191 | Cc1cc(C(=O)O)n2nc(C)cc2n1 |
| 136 to 138 | NC(=O)CCNc1ccccc1[N+](=O)[O-] |
| 147 to 149 | O=C(O)C(Oc1cccc(Cl)c1Cl)c1ccccc1 (centres undefined) |
| 152 to 156 | O=C(O)COc1ccc(C(=O)c2ccccc2)cc1 |
| 79 to 81 | C=CCNC(=O)c1cccc(C#N)c1 |
| 114 to 116 | Cc1oc(C(=O)O)cc1S(=O)(=O)Cl |

| melting point [°C] | SMILES |
| --- | --- |
| 104 to 106 | CC(C)(C)OC(=O)NCC#Cc1ccc(OCc2ccccc2)cc1 |
| 111 to 113 | Nc1cccc(C(=O)Nc2ccccn2)c1 |
| 72 to 74 | N#Cc1ccccc1Oc1ccccn1 |
| 115 to 117 | CCOc1ccc(C(N)=S)cc1 |
| 120 to 122 | C#CCOc1ncccc1C(=O)O |
| 45 to 47 | CON(C)C(=O)Cc1ccc(Cl)cc1 |
| 162 to 164 | O=C(O)c1nc(C2CC2)n(-c2ccccc2Cl)n1 |
| 111 to 113 | N#Cc1cccnc1NCc1ccccc1Cl |
| 155 to 157 | CCc1ncncc1C(=O)O |
| 111 to 113 | O=C(O)c1ccc(S(=O)(=O)Nc2ccccc2Cl)cc1 |
| 97 to 99 | O=C(O)CS(=O)(=O)CCCc1ccccc1 |
| 103 to 105 | CC(C)(C)n1[nH]c(-c2ccccc2)cc1=N |
| 169 to 171 | Cc1ccc(-c2csc(NC(=O)CCl)n2)cc1 |
| 164 to 166 | COc1cc(C=CC(=O)O)ccc1OCC#N |
| 141 to 143 | O=C(O)CCNC(=O)c1ccc(F)cc1Cl |
| 59 to 61 | O=S(=O)(Cl)c1ccc(OCCBr)cc1 |
| 268 to 270 | Cc1nn(-c2cccc(Cl)c2)c2sc(C(=O)O)cc12 |
| 164 to 166 | COc1ccc(C(=O)O)cc1C(C)C |
| 73 to 75 | O=C(CC(F)(F)F)c1ccc(Br)cc1 |
| 76 to 78 | NNC(=O)C(F)(F)Oc1ccccc1 |
| 152 to 154 | CCCCN1C(=O)c2ccc(C(=O)O)cc2C1=O |

| melting point [°C] | SMILES |
| --- | --- |
| 72 to 74 | Nc1ccc(OCc2ccco2)c(Cl)c1 |
| 161 to 163 | N#Cc1cc([N+](=O)[O-])ccc1N1CCC(C(=O)O)CC1 |
| 107 to 109 | CCOc1ccc(Br)cc1S(=O)(=O)NC |
| 250 to 252 | Cn1ccnc1C(=O)c1cc(S)nc2ccccc12 |
| 173 to 175 | O=C(O)CNc1ccccc1Cl |
| 173 to 175 | Cc1ncc(CO)n1-c1ccccc1 |
| 96 to 98 | O=C(Nc1ccccc1F)C1CCc2ccccc2N1 (centres undefined) |
| 85 to 87 | CCOc1ccc(S(=O)(=O)NC(=O)c2ccccc2)cc1 |
| 183 to 185 | CC(=O)Nc1c[nH]c(C)c1C(=O)O |
| 136 to 138 | CC(C)c1sc(NC(=O)CCl)nc1-c1ccccc1 |
| 200 to 202 | Cc1ccc(OCc2nc(C(=O)NC3=NCCS3)cs2)cc1 |
| 81 to 83 | COC(=O)c1ccc(-c2nc(C)cs2)cc1 |
| 201 to 203 | CC(NC(=O)CCl)c1ccc2ccccc2c1 (centres undefined) |
| 122 to 124 | Cc1cc(Oc2ccc(C(=O)O)cn2)ccc1C(C)C |
| 238 to 240 | CS(=O)(=O)c1ccc(C(=O)Nc2c(Cl)cc(N)cc2Cl)cc1 |
| 179 to 181 | O=C(O)c1cc(Oc2ccccc2)ccn1 |
| 127 to 129 | O=C(O)C1CCCN1C(=O)c1ccc(Cl)s1 (centres undefined) |
| 251 to 253 | O=C(O)c1ccc(Oc2ccc(Br)cc2)c(F)c1 |
| 140 to 142 | O=C(Cc1ncc[nH]1)c1ccc(Cl)cc1F |
| 120 to 122 | NNC(=O)CCN1CCN(c2ccccc2)CC1 |
| 181 to 183 | Oc1cccc2cn[nH]c12 |

| melting point [°C] | SMILES |
| --- | --- |
| 189 to 191 | COC(=O)c1cc2c(Br)ccc(F)c2[nH]1 |
| 126 to 128 | COc1ccc(CNc2ccncc2)cc1 |
| 84 to 86 | COC(=O)CS(=O)c1ccc(Br)cc1 (centres undefined) |
| 166 to 168 | COc1ccc(CC(=O)O)cc1S(=O)(=O)Cl |
| 189 to 191 | CN(C(=O)C(C)(C)C)c1ccc(O)cc1 |
| 143 to 145 | Cc1nc(COc2ccccc2/C=C/C(=O)O)cs1 |
| 244 to 246 | O=C(Nc1sccc1C(=O)O)c1ccc(Cl)cc1O |
| 218 to 220 | O=C(O)c1cc([N+](=O)[O-])ccc1Sc1nnnn1-c1ccccc1 |
| 64 to 66 | Cc1ccccc1C1CC1C(=O)O (centres undefined) |
| 148 to 150 | Nc1ccc(NCCCC(=O)O)cc1 |
| 170 to 172 | NNC(=O)COc1ccc(Br)cc1 |
| 131 to 135 | Nc1ccccc1C(=O)Nc1cccc(Cl)c1 |
| 126 to 128 | c1ccc(COc2cccc3cn[nH]c23)cc1 |
| 214 to 216 | FC(F)(F)c1nc(S)c2ccccc2n1 |
| 194 to 196 | NS(=O)(=O)c1ccc(C(=O)O)nc1 |
| 188 to 190 | Cc1ccc(NC(=O)CC#N)cc1 |
| 108 to 110 | O=C(O)C(Cc1ccsc1)C(=O)O |
| 146 to 148 | CC(=O)N(C)c1ccccc1N |
| 60 to 62 | COc1cccc(SCC(=O)O)c1 |

From a melting point compilation (Tetko et al.)
